Data taken from patent US8349793B2, “Method for treatment of inflammatory disease and disorder” (Heal0r, Ltd., priority 2010, dated 2013).
Where no end group is shown, it is not given here. The star is where a group is joined. Palmitoyl = CCCCCCCCCCCCCCCC(=O)*; Myristoyl = CCCCCCCCCCCCCC(=O)*

What was measured:
splenocytes = assay: Cytokine secretion in splenocytes stimulated with LPS or TNFα (ELISA); format: cell-based, B6 mice
Excerpt: Inhibitory effect on activated splenocytes: Splenocytes were derived from B6 mice. […] Medium containing secreted cytokines was collected after 48 hr and analyzed using ELISA.

keratinocytes [1] = assay: Cytokine secretion in keratinocytes stimulated by LPS, TNFα or IL-17 (ELISA); format: cell-based, BALB/C mice; settings: for Reduces Chemokines IP 10 / Reduces proinflammatory cytokines IL-6: TNFa stim (35 ng/ml), 1 μg/ml of peptide (given for EPIP1, EPIP2, not for EPIP4), reduction printed with or without minus sign; for cytokine secretion in keratinocytes: stimulated by LPS, TNFα, or IL-17
Experimental: To determine their effects, keratinocytes were derived from newborn BALB/C mice skin. The cells were incubated for 5 days in 24 wells plate. Cells were then incubated with PBS−/− as control or stimulated by LPS, TNFα, or IL-17. PKCα inhibitors were added as indicated. Medium containing secreted cytokines was collected after 48 hr and analyzed using ELISA. FIG. 40 is a tabular summary of cytokine secretion.
PKCδactivators were also shown to have an anti-inflammatory effect on keratinocytes and splenocytes. Keratinocytes were derived from newborn BALB/C mice skin. The cells were incubated for 5 days in 24 wells plate. Cells were then incubated with PBS−/− as control or stimulated by LPS or TNFα. The PKCδ inhibitor DAP-1 (SEQ ID NO: 16) was added. Medium containing secreted cytokines was collected after 48 hr and analyzed using ELISA. FIG. 35 is a tabular summary showing cytokine secretion in splenocytes stimulated with LPS. […] Cytokine secretion in keratinocytes stimulated by TNFα: following stimulation with 35 ng/ml TNFα. And treatment with 10 μg/ml of DAP-1, the cytokine levels of IL-1α, G-CSF, MIP-2 and KC were reduced by 95%, 70%, 20% and 30# respectively.
PKCε inhibitors were also shown to have an anti-inflammatory effect on keratinocytes. Keratinocytes were derived from newborn BALB/C mice skin. The cells were incubated for 5 days in 24 wells plate. Cells were then incubated with PBS−/− as control or stimulated by LPS or TNFα. The PKCεinhibitors EPIP-1 (SEQ ID NO: 20), EPIP-2 (SEQ ID NO: 21), or EPIP-4 (SEQ ID NO: 23) were added. Medium containing secreted cytokines was collected after 48 hr and analyzed using ELISA. FIGS. 36-39 show the results for secretion of specific cytokines while Table 8 summarizes cytokine secretion for the various PKCε inhibitors: […]

keratinocytes [2] = assay: Keratinocyte proliferation in vitro (PCNA); format: cell-based, Balb/c mice; settings: for Proliferation markers (PCNA): concentration not given
Experimental: Primary murine keratinocytes from 2 days old Balb/c mice were grown for 5 days to reach full confluence in 0.05 mM Ca^2+ MEM medium. HO/02/10 treatment (10^−6M and 10^−5M) was applied 6 hours prior to induction of differentiation. Cells were harvested, run on SDS PAGE gel and immunoblotted using anti-PCNA antibodies. In addition, C57Black mice, 8-10 weeks of age were subjected to full thickness wounding in the upper back area to induce epidermis remodeling and differentiation. Following the wounding, mice were treated daily with HO/02/10 (ranged 40-4000 mg/kg/day) for 7 days. At the termination point, mice were euthanized and upper back skin samples were fixed in 4% paraformaldehyde solution, following paraffin embedding and slide preparation. Skin samples were then subjected to immunohistochemical staining utilizing PCNA antibody. (n=18).
(§1) FIGS. 7 and 8 presents a summary of expression data in keratinocytes utilizing various peptide PKCα inhibitors: MPDY-1 (SEQ ID NO: 21) as well as data for the peptide PKCα inhibitors AIP-1 (SEQ ID NO: 3), AIP-2 (SEQ ID NO: 20), AWOT-1 (SEQ ID NO: 5) and PPDY-1 (SEQ ID NO: 22). […] FIG. 8 presents a summary of expression data in keratinocytes for various peptide PKCα inhibitors.

keratinocytes [3] = assay: Keratinocyte migration; format: cell-based; parameters: concentration or dose not given beside the values
keratinocytes [4] = assay: Keratinocyte differentiation markers (Filaggrin, Loricrin, Keratin 1); format: cell-based, C57BL/6J mice; settings: concentration: EPIP1 and DAP1 1 μg/ml, 10 μg/ml, EPIP2 10 μg/ml
Experimental: Keratinocytes derived from C57BL/6J mice were incubated in medium containing Ca^2+ to induce keratinocytes differentiation. Cells were then incubated in the presence of […] (1 μg/ml). Cells were harvested, run on SDS PAGE gel and immunoblotted using anti-Filaggrin (Fil), anti Loricrin (Lor) and anti-Keratin 1 (K1) antibody.
as §1

[5] = TNFα 25 ng/ml, peptide 1 μg/ml, 48 hr
[6] = TNFα 25 ng/ml, peptide 10 μg/ml, 48 hr
[7] = LPS 1 [μg/ml], peptide [10 μg/ml], 48 hr
[8] = LPS 1 [μg/ml], peptide [1 g/ml], 48 hr
[9] = TNF [35 ng/ml], peptide [10 μg/ml], 48 hr
[10] = TNF [35 ng/ml], peptide [1 g/ml], 48 hr
[11] = keratinocytes, LPS (1 μg/ml) (EPIP4: printed 1 mg/ml), peptide concentration not given
[12] = Splenocytes, Induction: LPS (1 μg/ml) (given for DAP1 only), peptide (10 μg/ml)
[13] = Keratinocytes, Induction: TNFα (35 ng/ml), peptide (10 μg/ml)

## Myristoyl-Thr-Arg-Lys-Arg-Gln-Arg-Ala-Met-Arg-Arg-Arg-Val-His-Gln-Ile-Asn-Gly (Myristoyl-TRKRQRAMRRRVHQING) [MPE-1]
splenocytes; [5]
  G-CSF (% reduction in secretion): 40%
  IL-6 (% reduction in secretion): 25%
  IL-17 (% reduction in secretion): 90%
splenocytes; [6]
  G-CSF (% reduction in secretion): 15%
  IL-17 (% reduction in secretion): 90%

## PYIALNVD [EPIP-2]
splenocytes; [5]
  IL-4 (% reduction in secretion): 15%
  IL-17 (% reduction in secretion): 80%
  IP-10 (% reduction in secretion): 20%
splenocytes; [6]
  G-CSF (% reduction in secretion): 30%
  IL-6 (% reduction in secretion): 25%
  IL-10 (% reduction in secretion): 30%
  IL-17 (% reduction in secretion): 85%
  IP-10 (% reduction in secretion): 10%
Keratinocytes [1]; [7]
  G-CSF secretion (change): −75%
  IL-6 secretion (change): −55%
  IP-10 secretion (change): −40%
  KC secretion (change): −90%
Keratinocytes [1]; [8]
  G-CSF secretion (change): −50%
  IL-6 secretion (change): −40%
  IP-10 secretion (change): −50%
  KC secretion (change): −90%
Keratinocytes [1]; [9]
  G-CSF secretion (change): −100%
  IL-6 secretion (change): −95%
  IP-10 secretion (change): (−40%)
Keratinocytes [1]; [10]
  G-CSF secretion (change): −100%
  IL-6 secretion (change): −95%
  IP-10 secretion (change): (−65%)
Keratinocytes [1]; [11]
  G-CSF secretion (change): −50%
  IL-6 secretion (change): −40%
  IP-10 secretion (change): −50%
  KC secretion (change): −90%
Keratinocytes [1]; keratinocytes
  Reduces Chemokines IP 10: Chemokines IP 10 (65%)
  Reduces proinflammatory cytokines IL-6: (95%), systemic cytokines G-SCF
Keratinocytes [2]; 1 μg/ml
  Proliferation markers: Induces
Keratinocytes [2]; 10 μg/ml
  Proliferation markers: Reduce
Keratinocytes [3]
  Migration, Induces: (200%)
Keratinocytes [4]
  Differentiation markers: granular differentiation: Reduces granular
  Differentiation markers: spainous differentiation: Slightly induces

## LEPEAAAAAAGK [EPIP-4]
splenocytes; [5]
  G-CSF (% reduction in secretion): 45%
  IFN-γ (% reduction in secretion): 25%
  IL-1a (% reduction in secretion): 10%
  IL-6 (% reduction in secretion): 15%
  IL-10 (% reduction in secretion): 30%
  IL-17 (% reduction in secretion): 85%
splenocytes; [6]
  G-CSF (% reduction in secretion): 20%
  IFN-γ (% reduction in secretion): 55%
  IL-10 (% reduction in secretion): 10%
  IL-17 (% reduction in secretion): 90%
  IP-10 (% reduction in secretion): 15%
Keratinocytes [1]; [8]
  G-CSF secretion (change): −75%
  IL-6 secretion (change): −55%
  IP-10 secretion (change): −60%
  KC secretion (change): −100%
Keratinocytes [1]; [10]
  G-CSF secretion (change): IL-6 (−100%), G-CSF (−100%), IP-10
  IL-6 secretion (change): IL-6 (−100%), G-CSF (−100%), IP-10
  IP-10 secretion (change): (−80%)
Keratinocytes [1]; [11]
  IL-6 secretion (change): Reduces proinflammatory IL-6 (−55%),
  IP-10 secretion (change): −60%
  KC secretion (change): −100%
Keratinocytes [1]; keratinocytes
  Reduces Chemokines IP 10: Chemokines IP 10 (−80%)
  Reduces proinflammatory cytokines IL-6: proinflammatory cytokines IL-6(−100%),
Keratinocytes [2]
  Proliferation markers (PCNA): Induces
Keratinocytes [3]
  Migration, Induces: (200%)
Keratinocytes [4]
  Differentiation markers: granular differentiation: No influence
  Differentiation markers: spainous differentiation: reduces spainous

## Palmitoyl-Phe-Ala-Arg-Lys-Gly-Ala-Leu-Arg-Gln (Palmitoyl-FARKGALRQ) [PPDY-1]
Keratinocytes [1]; 48 hr
  cytokine secretion in keratinocytes: effective in decreasing cytokine secretion

## Myristoyl-Phe-Ala-Arg-Lys-Gly-Ala-Leu (Myristoyl-FARKGAL) [AIP-2]
Keratinocytes [1]; FIGS. 19 to 23
  cytokine secretion from LPS and TNFα activated keratinocytes: decrease
Keratinocytes [1]; FIGS. 24 to 27
  cytokine secretion from IL-17A activated keratinocytes: decrease
Keratinocytes [1]; 48 hr
  cytokine secretion in keratinocytes: effective in decreasing cytokine secretion

## HFEDWIDHFEDWID [DAP-3]
splenocytes; Splenocytes, DAP3 (10 μg/ml)
  Reduces Chemokines: MIP2: MIP2 (25%)
splenocytes; [12]
  reduces proinflamatory cytokine: IL-1α: IL-1α (45%),
  reduces systemic cytokine: G-SCF: G-SCF (25%),
Keratinocytes [1]; [13]
  Reduces Chemokines: KC: KC (25%),
  Reduces proinflamatory cytokine: IL-1a: (50%)
  Reduces proinflamatory cytokine: IL-6: (45%) and IL-1a
  Reduces systemic cytokine G-SCF: SCF (25%),
  Reduces systemic cytokine GM-CSF: SCF (25%),
Keratinocytes [2]
  Proliferation markers (PCNA): induces
Keratinocytes [3]
  Migration, Induces: (200%)
Keratinocytes [4]
  Differentiation markers: granular differentiation: induces
